From PubChem BioAssay AID248 (DTP/NCI, 2004)
“And” between values parts separate entries of the source, which are not always exact repeats. Equal entries are not always repeated. Toxic doses and inconclusive results are not listed. Cut-off read from the data, not from the text of the source: active = T/C of 150% or more; inactive = T/C below 125%.

Tested on: L1210 leukemia ip in BDF1 mice, survival T/C
Assay: NCI In Vivo Anticancer Drug Screen. Data for tumor model L1210 Leukemia (intraperitoneal) in B6D2F1 (BDF1) mice
Conditions: endpoint: mean survival time, higher = longer survival
In short: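 Transplanted-tumor mice were given test agent; controls received vehicle only. Survival readings from the two groups were divided (treated over control).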

[1] = dose: 100.0 mg/kg/injection, schedule: Q04DX003 (ip), vehicle: saline with Tween-80
[2] = dose: 200.0 mg/kg/injection, schedule: Q04DX003 (ip), vehicle: saline with Tween-80
[3] = dose: 12.5 mg/kg/injection, schedule: Q04DX003 (ip), vehicle: saline
[4] = dose: 25.0 mg/kg/injection, schedule: Q04DX003 (ip), vehicle: saline
[5] = dose: 100.0 mg/kg/injection, schedule: Q01DX001 (ip), vehicle: saline
[6] = dose: 200.0 mg/kg/injection, schedule: Q01DX001 (ip), vehicle: saline
[7] = dose: 100.0 mg/kg/injection, schedule: Q01DX009 (ip), vehicle: saline with Tween-80
[8] = dose: 100.0 mg/kg/injection, schedule: Q04DX003 (ip), vehicle: saline
[9] = dose: 200.0 mg/kg/injection, schedule: Q01DX009 (ip), vehicle: saline with Tween-80
[10] = dose: 400.0 mg/kg/injection, schedule: Q01DX001 (ip), vehicle: saline
[11] = dose: 50.0 mg/kg/injection, schedule: Q04DX003 (ip), vehicle: saline with Tween-80
[12] = dose: 25.0 mg/kg/injection, schedule: Q01DX009 (ip), vehicle: saline
[13] = dose: 50.0 mg/kg/injection, schedule: Q01DX009 (ip), vehicle: saline

Measured: T/C

CC1(C)OC(CI)C(COS(C)(=O)=O)O1 (centres undefined)
inactive: [1] 114 % of control | dose: 115.0 mg/kg/injection, schedule: Q01DX001 (ip), vehicle: steriod suspending solution 97 % of control | dose: 173.0 mg/kg/injection, schedule: Q01DX001 (ip), vehicle: steriod suspending solution 90 % of control | [2] 105 % of control | dose: 400.0 mg/kg/injection, schedule: Q04DX003 (ip), vehicle: saline with Tween-80 111 % of control

CCC(C)C(CCN1CCCCC1)(CNC(=O)CN(CC)CC)Cc1cccc2ccccc12 (centres undefined)
inactive: [3] 101 % of control | [4] 103 % of control | dose: 50.0 mg/kg/injection, schedule: Q04DX003 (ip), vehicle: saline 98 % of control

COCCOC(=O)c1ccc(C(=N)N)cc1
inactive: [5] 106 % of control | [6] 100 % of control

c1ccc2[nH]c(N3CCOCC3)nc2c1
inactive: dose: 50.0 mg/kg/injection, schedule: Q01DX009 (ip), vehicle: saline with Tween-80 100 % of control | [7] 107 % of control | [8] 96 % of control | [9] 96 % of control | dose: 200.0 mg/kg/injection, schedule: Q04DX003 (ip), vehicle: saline 97 % of control | dose: 400.0 mg/kg/injection, schedule: Q04DX003 (ip), vehicle: saline 103 % of control

COC(=O)CCC(=O)c1ccc(Cl)cc1
inactive: dose: 100.0 mg/kg/injection, schedule: Q01DX009 (ip), vehicle: gum acacia 98 % of control | dose: 100.0 mg/kg/injection, schedule: Q04DX003 (ip), vehicle: gum acacia 100 % of control | dose: 200.0 mg/kg/injection, schedule: Q01DX009 (ip), vehicle: gum acacia 97 % of control | dose: 200.0 mg/kg/injection, schedule: Q04DX003 (ip), vehicle: gum acacia 96 % of control | dose: 400.0 mg/kg/injection, schedule: Q01DX009 (ip), vehicle: gum acacia 101 % of control | dose: 400.0 mg/kg/injection, schedule: Q04DX003 (ip), vehicle: gum acacia 102 % of control

CN1NC(=O)C2CCCC1O2 (centres undefined)
inactive: [5] 95 % of control | [6] 105 % of control | [10] 94 % of control

CC(=O)[O][Hg][c]1c(N)c(C)cc(C)c1F
inactive: dose: 2.5 mg/kg/injection, schedule: Q01DX009 (ip), vehicle: saline 91 % of control | dose: 5.0 mg/kg/injection, schedule: Q01DX009 (ip), vehicle: saline 95 % of control | dose: 6.25 mg/kg/injection, schedule: Q04DX003 (ip), vehicle: saline 101 % of control | dose: 10.0 mg/kg/injection, schedule: Q01DX009 (ip), vehicle: saline 98 % of control | [3] 91 % of control | [4] 94 % of control and 100 % of control | [8] 95 % of control

CCOC(=O)CC(N)CC(=O)OCC
inactive: [5] 104 % of control | [6] 104 % of control | [10] 106 % of control

COc1ccc(C(=O)CC(C(=O)O)c2ccc3c(c2)OCO3)cc1OC (centres undefined)
inactive: [7] 96 % of control | [9] 98 % of control | dose: 400.0 mg/kg/injection, schedule: Q01DX009 (ip), vehicle: saline with Tween-80 98 % of control

CNC(=O)Oc1ccccc1NC(=O)OC
inactive: dose: 25.0 mg/kg/injection, schedule: Q04DX003 (ip), vehicle: saline with Tween-80 97 % of control | [11] 95 % of control | [1] 92 % of control and 97 % of control

CC(C)(C)CC(C)(C)N(CSc1ccc2ccccc2c1)CSc1ccc2ccccc2c1
inactive: [5] 98 % of control | [6] 98 % of control | [10] 91 % of control

CC(C)(C)C1CC=CCC1 (centres undefined)
inactive: dose: 50.0 mg/kg/injection, schedule: Q01DX009 (ip), vehicle: saline sonified 96 % of control | dose: 100.0 mg/kg/injection, schedule: Q01DX009 (ip), vehicle: saline sonified 102 % of control | dose: 200.0 mg/kg/injection, schedule: Q01DX009 (ip), vehicle: saline sonified 100 % of control

C=Cc1ccc(C(=O)O)cc1
inactive: dose: 100.0 mg/kg/injection, schedule: Q04DX002 (ip), vehicle: saline with Tween-80 98 % of control | dose: 200.0 mg/kg/injection, schedule: Q04DX002 (ip), vehicle: saline with Tween-80 98 % of control | dose: 400.0 mg/kg/injection, schedule: Q04DX002 (ip), vehicle: saline with Tween-80 106 % of control

CCCCCCCC1CCCCC1
inactive: dose: 50.0 mg/kg/injection, schedule: Q01DX001 (ip), vehicle: saline 101 % of control | [5] 98 % of control | [6] 101 % of control | [10] 98 % of control

CCOC(=O)C(=O)O
inactive: [12] 96 % of control | [13] 103 % of control | dose: 100.0 mg/kg/injection, schedule: Q01DX009 (ip), vehicle: saline 96 % of control | dose: 100.0 mg/kg/injection, schedule: Q04DX002 (ip), vehicle: saline 106 % of control | dose: 200.0 mg/kg/injection, schedule: Q04DX002 (ip), vehicle: saline 109 % of control | dose: 400.0 mg/kg/injection, schedule: Q04DX002 (ip), vehicle: saline 97 % of control

Cc1ccc(C)c(Cl)c1
inactive: dose: 50.0 mg/kg/injection, schedule: Q01DX001 (ip), vehicle: saline with Tween-80 95 % of control | [11] 101 % of control | dose: 100.0 mg/kg/injection, schedule: Q01DX001 (ip), vehicle: saline with Tween-80 97 % of control | [1] 100 % of control | dose: 200.0 mg/kg/injection, schedule: Q01DX001 (ip), vehicle: saline with Tween-80 97 % of control | [2] 97 % of control

CCCCCCCC(=O)N(CC(C)C)CC(C)C
inactive: dose: 100.0 mg/kg/injection, schedule: Q01DX001 (ip), vehicle: carboxymethylcellulose (CMC) 102 % of control | dose: 100.0 mg/kg/injection, schedule: Q01DX009 (ip), vehicle: carboxymethylcellulose (CMC) 97 % of control | dose: 100.0 mg/kg/injection, schedule: Q04DX002 (ip), vehicle: carboxymethylcellulose (CMC) 101 % of control and 102 % of control | dose: 100.0 mg/kg/injection, schedule: Q04DX003 (ip), vehicle: carboxymethylcellulose (CMC) 97 % of control | dose: 200.0 mg/kg/injection, schedule: Q01DX001 (ip), vehicle: carboxymethylcellulose (CMC) 96 % of control | dose: 200.0 mg/kg/injection, schedule: Q01DX009 (ip), vehicle: carboxymethylcellulose (CMC) 93 % of control and 98 % of control | dose: 200.0 mg/kg/injection, schedule: Q04DX002 (ip), vehicle: carboxymethylcellulose (CMC) 97 % of control and 102 % of control | dose: 200.0 mg/kg/injection, schedule: Q04DX003 (ip), vehicle: carboxymethylcellulose (CMC) 97 % of control | dose: 400.0 mg/kg/injection, schedule: Q01DX001 (ip), vehicle: carboxymethylcellulose (CMC) 91 % of control | dose: 400.0 mg/kg/injection, schedule: Q04DX002 (ip), vehicle: carboxymethylcellulose (CMC) 94 % of control | dose: 400.0 mg/kg/injection, schedule: Q04DX003 (ip), vehicle: carboxymethylcellulose (CMC) 90 % of control

O=C(NC/C=C/Br)Nc1c2ccccc2nc2ccccc12
inactive: dose: 12.5 mg/kg/injection, schedule: Q01DX009 (ip), vehicle: saline 102 % of control | [12] 102 % of control | [13] 109 % of control

CC(C)CC1NC(=O)N(C)C1=O (centres undefined)
inactive: dose: 75.0 mg/kg/injection, schedule: Q01DX001 (ip), vehicle: carboxymethylcellulose (CMC) 95 % of control | dose: 150.0 mg/kg/injection, schedule: Q01DX001 (ip), vehicle: carboxymethylcellulose (CMC) 100 % of control | dose: 300.0 mg/kg/injection, schedule: Q01DX001 (ip), vehicle: carboxymethylcellulose (CMC) 100 % of control

N#Cc1ccc(OCCCOc2ccc([N+](=O)[O-])cc2)cc1
inactive: dose: 100.0 mg/kg/injection, schedule: Q04DX003 (ip), vehicle: Klucel (hydroxypropylcellulose) (HPC) 106 % of control | dose: 200.0 mg/kg/injection, schedule: Q04DX003 (ip), vehicle: Klucel (hydroxypropylcellulose) (HPC) 100 % of control | dose: 400.0 mg/kg/injection, schedule: Q04DX003 (ip), vehicle: Klucel (hydroxypropylcellulose) (HPC) 103 % of control

OC(COc1cccc2ccccc12)CN1CCN(c2ccc(Cl)cc2)CC1 (centres undefined)
inactive: [5] 98 % of control | [6] 101 % of control | [10] 97 % of control
